Assay results taken from paper PMC11345841, “Exploring 2-Sulfonylpyrimidine Warheads as Acrylamide Surrogates for Targeted Covalent Inhibition: A BTK Story” (Journal of Medicinal Chemistry, 2024).
Where two headings read alike, the source gives them in different places.

Columns and labels:
Assay in all cases: KINOMEscan ScanTK
Format in all cases: binding
[1] = biological target: T1, ABL1(T315I)-phosphorylated (Homo sapiens, UniProt P00519, T315I)
T1 construct: purchased Eurofins DiscoverX KINOMEscan (scanTK)

[2] = biological target: T2, EGFR(L858R,T790M) (Homo sapiens, UniProt P00533, L858R/T790M)
T2 construct: purchased Eurofins DiscoverX KINOMEscan (scanTK)

[3] = biological target: T3, EPHA1 (Homo sapiens, UniProt P21709)
T3 construct: purchased Eurofins DiscoverX KINOMEscan (scanTK)
T3 sequence (P21709 26-976): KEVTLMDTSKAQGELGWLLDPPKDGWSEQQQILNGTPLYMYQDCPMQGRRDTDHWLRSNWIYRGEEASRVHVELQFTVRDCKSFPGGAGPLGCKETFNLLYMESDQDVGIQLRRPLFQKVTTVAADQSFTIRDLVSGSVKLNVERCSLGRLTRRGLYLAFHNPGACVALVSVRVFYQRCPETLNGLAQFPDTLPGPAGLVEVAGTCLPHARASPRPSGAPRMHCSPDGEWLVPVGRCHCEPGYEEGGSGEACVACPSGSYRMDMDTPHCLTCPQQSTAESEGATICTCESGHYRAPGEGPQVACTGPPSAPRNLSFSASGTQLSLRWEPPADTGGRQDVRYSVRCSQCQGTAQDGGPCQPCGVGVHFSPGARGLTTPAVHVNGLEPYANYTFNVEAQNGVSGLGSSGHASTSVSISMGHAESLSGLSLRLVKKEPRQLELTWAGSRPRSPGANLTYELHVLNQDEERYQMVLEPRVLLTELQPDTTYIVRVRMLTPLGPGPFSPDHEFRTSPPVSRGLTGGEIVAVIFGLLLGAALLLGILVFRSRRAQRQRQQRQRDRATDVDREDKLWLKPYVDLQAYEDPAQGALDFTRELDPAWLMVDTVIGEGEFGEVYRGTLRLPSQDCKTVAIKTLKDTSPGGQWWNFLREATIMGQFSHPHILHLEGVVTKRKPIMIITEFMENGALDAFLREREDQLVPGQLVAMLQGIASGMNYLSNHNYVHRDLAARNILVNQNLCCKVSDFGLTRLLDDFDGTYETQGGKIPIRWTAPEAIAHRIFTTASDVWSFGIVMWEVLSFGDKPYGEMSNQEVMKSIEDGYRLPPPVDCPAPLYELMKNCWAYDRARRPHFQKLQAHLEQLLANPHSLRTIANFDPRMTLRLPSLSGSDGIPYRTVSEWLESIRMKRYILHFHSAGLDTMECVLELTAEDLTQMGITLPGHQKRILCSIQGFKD

[4] = biological target: T4, EPHA4 (Homo sapiens, UniProt P54764)
T4 construct: purchased Eurofins DiscoverX KINOMEscan (scanTK)

[5] = biological target: T5, EPHA7 (Homo sapiens, UniProt Q15375)
T5 construct: purchased Eurofins DiscoverX KINOMEscan (scanTK)

[6] = biological target: T6, ERBB2 (Homo sapiens, UniProt P04626)
T6 construct: purchased Eurofins DiscoverX KINOMEscan (scanTK)

[7] = biological target: T7, FAK (Homo sapiens, UniProt Q05397)
T7 construct: purchased Eurofins DiscoverX KINOMEscan (scanTK)

[8] = biological target: T8, INSR (Homo sapiens, UniProt P06213)
T8 construct: purchased Eurofins DiscoverX KINOMEscan (scanTK)

[9] = biological target: T9, JAK1(JH2domain-pseudokinase) (Homo sapiens, UniProt P23458)
T9 construct: JAK1(JH2domain-pseudokinase); purchased Eurofins DiscoverX KINOMEscan (scanTK)

[10] = biological target: T10, SRC (Homo sapiens, UniProt P12931)
T10 construct: purchased Eurofins DiscoverX KINOMEscan (scanTK)

[11] = biological target: T11, SRMS (Homo sapiens, UniProt Q9H3Y6); details: for remaining binding at 1 µM: SRMS
T11 construct: purchased Eurofins DiscoverX KINOMEscan (scanTK)

[12] = @1000nM, ERBB2, read-out: %Control
[13] = ERBB2, read-out: %Control @1000nM

T11 sequence (Q9H3Y6 whole entry): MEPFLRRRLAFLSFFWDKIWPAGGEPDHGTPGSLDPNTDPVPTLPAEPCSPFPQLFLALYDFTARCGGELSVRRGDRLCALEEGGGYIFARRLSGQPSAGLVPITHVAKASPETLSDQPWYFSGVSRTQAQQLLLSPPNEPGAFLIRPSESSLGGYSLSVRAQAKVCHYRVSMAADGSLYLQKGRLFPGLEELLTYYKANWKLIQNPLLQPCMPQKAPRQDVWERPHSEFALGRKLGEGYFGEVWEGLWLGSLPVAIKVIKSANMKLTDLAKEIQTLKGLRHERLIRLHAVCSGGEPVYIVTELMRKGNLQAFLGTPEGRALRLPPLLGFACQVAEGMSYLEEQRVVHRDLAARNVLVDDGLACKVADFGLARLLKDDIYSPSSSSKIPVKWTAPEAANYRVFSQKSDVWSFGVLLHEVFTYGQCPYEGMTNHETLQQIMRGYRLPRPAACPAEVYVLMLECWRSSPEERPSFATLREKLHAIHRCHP
T7 sequence (Q05397 whole entry): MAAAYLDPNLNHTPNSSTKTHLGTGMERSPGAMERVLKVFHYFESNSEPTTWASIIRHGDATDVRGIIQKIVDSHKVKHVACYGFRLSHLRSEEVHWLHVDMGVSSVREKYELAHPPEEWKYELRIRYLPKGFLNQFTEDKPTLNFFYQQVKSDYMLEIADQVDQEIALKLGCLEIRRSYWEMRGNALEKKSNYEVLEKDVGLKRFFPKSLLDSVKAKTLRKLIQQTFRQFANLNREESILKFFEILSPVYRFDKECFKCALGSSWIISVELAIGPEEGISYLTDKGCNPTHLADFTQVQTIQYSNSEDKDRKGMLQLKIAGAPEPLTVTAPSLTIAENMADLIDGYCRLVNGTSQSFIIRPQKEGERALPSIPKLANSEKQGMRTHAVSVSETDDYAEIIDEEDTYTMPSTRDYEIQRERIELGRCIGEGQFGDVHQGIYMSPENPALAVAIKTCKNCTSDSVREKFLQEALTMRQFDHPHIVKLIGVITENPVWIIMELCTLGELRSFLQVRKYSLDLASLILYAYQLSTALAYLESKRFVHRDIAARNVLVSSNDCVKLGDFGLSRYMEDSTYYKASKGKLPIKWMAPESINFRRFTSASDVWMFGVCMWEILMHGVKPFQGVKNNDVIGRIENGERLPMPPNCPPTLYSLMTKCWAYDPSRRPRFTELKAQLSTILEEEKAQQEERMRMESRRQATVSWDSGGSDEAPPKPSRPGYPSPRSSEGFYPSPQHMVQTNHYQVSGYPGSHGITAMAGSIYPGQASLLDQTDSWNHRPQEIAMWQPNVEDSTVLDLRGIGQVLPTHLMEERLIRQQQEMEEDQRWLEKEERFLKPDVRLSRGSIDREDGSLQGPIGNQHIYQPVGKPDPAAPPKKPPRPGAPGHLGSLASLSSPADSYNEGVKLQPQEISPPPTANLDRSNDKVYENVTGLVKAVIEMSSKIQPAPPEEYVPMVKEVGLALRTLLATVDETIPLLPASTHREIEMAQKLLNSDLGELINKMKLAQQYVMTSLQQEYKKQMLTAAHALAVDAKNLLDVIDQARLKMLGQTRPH
T2 sequence (P00533 25-1210 T790M/L858R): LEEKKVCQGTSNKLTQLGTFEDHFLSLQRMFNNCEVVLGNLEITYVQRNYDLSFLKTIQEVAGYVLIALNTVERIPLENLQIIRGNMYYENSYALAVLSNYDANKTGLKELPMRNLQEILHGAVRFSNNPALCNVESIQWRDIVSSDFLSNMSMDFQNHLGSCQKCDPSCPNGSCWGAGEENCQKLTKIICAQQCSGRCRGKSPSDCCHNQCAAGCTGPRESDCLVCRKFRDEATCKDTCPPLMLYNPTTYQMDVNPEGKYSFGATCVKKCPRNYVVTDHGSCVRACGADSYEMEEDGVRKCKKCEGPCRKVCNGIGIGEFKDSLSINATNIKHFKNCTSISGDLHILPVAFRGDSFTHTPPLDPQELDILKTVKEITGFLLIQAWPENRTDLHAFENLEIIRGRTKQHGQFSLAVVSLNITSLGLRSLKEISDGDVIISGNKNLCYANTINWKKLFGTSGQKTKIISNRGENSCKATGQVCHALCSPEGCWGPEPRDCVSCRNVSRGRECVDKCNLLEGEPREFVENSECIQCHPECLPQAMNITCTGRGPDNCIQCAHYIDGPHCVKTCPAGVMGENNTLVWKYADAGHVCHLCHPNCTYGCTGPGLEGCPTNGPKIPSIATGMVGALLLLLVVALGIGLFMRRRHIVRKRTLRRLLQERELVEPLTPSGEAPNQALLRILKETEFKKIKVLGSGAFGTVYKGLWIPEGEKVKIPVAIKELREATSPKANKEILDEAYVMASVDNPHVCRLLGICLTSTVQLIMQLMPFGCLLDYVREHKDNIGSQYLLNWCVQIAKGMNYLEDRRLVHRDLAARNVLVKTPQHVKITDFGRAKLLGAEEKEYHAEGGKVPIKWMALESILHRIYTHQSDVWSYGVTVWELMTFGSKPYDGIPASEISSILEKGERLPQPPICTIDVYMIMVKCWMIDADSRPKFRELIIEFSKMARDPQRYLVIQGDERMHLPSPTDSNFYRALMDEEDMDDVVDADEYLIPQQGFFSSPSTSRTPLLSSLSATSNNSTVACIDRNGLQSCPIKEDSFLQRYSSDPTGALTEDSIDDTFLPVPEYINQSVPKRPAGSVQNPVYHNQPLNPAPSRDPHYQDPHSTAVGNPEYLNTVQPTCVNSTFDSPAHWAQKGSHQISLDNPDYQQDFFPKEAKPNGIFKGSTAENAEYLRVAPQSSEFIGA
T4 sequence (P54764 20-986): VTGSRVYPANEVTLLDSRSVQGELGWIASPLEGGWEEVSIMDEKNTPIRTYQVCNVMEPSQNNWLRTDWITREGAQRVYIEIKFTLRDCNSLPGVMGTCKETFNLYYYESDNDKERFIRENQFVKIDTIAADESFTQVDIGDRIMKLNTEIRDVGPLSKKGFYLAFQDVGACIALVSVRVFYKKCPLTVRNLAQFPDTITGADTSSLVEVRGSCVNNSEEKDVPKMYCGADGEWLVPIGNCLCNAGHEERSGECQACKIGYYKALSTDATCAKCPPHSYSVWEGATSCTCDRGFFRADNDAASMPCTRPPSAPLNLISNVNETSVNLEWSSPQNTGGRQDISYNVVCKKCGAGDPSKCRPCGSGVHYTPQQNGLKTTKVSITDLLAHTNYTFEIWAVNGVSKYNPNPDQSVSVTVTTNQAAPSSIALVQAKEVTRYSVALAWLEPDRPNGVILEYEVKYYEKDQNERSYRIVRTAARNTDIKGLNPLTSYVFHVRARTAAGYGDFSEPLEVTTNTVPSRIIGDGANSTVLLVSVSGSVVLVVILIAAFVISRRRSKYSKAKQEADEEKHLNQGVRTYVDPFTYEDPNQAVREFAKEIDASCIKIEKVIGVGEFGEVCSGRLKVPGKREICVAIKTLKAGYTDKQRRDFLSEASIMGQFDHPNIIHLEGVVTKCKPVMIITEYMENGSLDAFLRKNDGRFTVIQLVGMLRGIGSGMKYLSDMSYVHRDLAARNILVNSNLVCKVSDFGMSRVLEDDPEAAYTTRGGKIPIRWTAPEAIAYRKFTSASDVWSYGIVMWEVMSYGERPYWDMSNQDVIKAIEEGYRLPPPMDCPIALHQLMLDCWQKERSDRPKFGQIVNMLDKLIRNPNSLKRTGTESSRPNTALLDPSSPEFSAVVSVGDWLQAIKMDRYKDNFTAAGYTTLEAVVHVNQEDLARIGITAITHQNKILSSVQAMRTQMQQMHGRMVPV
T9 sequence (P23458 583-855 limits assumed): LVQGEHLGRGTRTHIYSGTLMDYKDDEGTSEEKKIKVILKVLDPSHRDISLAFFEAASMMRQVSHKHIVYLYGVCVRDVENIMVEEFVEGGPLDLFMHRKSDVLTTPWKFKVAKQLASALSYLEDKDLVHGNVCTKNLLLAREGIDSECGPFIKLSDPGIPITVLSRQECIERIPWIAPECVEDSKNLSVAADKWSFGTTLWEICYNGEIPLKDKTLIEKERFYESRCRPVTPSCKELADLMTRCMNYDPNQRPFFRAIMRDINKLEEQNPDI
T5 sequence (Q15375 28-998): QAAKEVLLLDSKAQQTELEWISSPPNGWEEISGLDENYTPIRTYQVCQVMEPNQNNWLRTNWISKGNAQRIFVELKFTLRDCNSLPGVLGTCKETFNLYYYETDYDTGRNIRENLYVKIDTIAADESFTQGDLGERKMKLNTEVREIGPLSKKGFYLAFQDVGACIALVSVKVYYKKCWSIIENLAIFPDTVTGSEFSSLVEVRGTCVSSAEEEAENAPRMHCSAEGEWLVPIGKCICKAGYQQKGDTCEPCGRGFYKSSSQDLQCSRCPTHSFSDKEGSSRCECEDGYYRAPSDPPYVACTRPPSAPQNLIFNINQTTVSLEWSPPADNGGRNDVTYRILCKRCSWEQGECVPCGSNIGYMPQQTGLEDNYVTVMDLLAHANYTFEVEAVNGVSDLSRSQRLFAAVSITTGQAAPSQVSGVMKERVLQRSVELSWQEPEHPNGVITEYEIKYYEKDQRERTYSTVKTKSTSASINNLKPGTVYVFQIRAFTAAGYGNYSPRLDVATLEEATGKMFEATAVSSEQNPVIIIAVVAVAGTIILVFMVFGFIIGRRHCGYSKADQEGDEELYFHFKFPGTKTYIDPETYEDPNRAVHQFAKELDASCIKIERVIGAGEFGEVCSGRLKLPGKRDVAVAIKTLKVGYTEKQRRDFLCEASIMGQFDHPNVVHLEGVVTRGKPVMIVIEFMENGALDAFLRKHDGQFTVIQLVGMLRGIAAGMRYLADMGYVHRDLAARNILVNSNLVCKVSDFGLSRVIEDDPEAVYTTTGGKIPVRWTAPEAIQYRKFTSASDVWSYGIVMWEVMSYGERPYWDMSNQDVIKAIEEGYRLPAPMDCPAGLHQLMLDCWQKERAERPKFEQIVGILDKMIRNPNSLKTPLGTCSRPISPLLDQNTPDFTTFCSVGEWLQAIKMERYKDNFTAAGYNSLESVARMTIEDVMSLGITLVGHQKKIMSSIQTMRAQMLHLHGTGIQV

Row | Structure (SMILES) | remaining binding at 1 µM ([3]; @1000nM, read-out: %Control) | remaining binding at 1 µM ([3]; read-out: %Control @1000nM) | remaining binding at 1 µM ([4]; @1000nM, read-out: %Control) | remaining binding at 1 µM ([4]; read-out: %Control @1000nM) | remaining binding at 1 µM ([5]; @1000nM, read-out: %Control) | remaining binding at 1 µM ([5]; read-out: %Control @1000nM) | remaining binding at 1 µM [6, 12] | remaining binding at 1 µM [6, 13] | remaining binding at 1 µM ([7]; @1000nM, read-out: %Control) | remaining binding at 1 µM ([7]; read-out: %Control @1000nM) | remaining binding at 1 µM ([8]; @1000nM, read-out: %Control) | remaining binding at 1 µM ([8]; read-out: %Control @1000nM) | remaining binding at 1 µM ([9]; @1000nM, read-out: %Control) | remaining binding at 1 µM ([9]; read-out: %Control @1000nM) | remaining binding at 1 µM ([11]; @1000nM, read-out: %Control) | remaining binding at 1 µM ([11]; read-out: %Control @1000nM) | other results
1 | CCOC(=O)c1cnc(S(C)(=O)=O)nc1N1CCC[C@@H](n2nc(-c3ccc(Oc4ccccc4)cc3)c3c(N)ncnc32)C1 [Compound 8c, Ethyl (R)-4-(3-(4-Amino-3-(4-phenoxyphenyl)-1H-pyrazolo[3,4-d]pyrimidin-1-yl)piperidin-1-yl)-2-(methylsulfonyl)pyrimidine-5-carboxylate] | 92% | 92% | 100% | 100% | 97% | 97% | 48% | 48% | 96% | 96% | 100% | 100% | 99% | 99% | 32% | 32% | difference in %Control versus compound Ib at 1 µM ([1]; @1000nM): -7%; remaining binding at 1 µM ([1]; @1000nM, read-out: %Control): 72%; remaining binding at 1 µM ([1]; read-out: %Control @1000nM): 72%; difference in % of control versus compound Ib at 1 µM ([2]; @1000nM): 77%; remaining binding at 1 µM ([2]; @1000nM, read-out: %Control): 87%; remaining binding at 1 µM ([2]; read-out: %Control @1000nM): 87%; difference in %Control versus compound Ib at 1 µM ([3]; @1000nM): 20%; %Control difference from compound Ib at 1 µM ([4]; @1000nM): 9%; difference in %Control versus compound Ib at 1 µM ([5]; @1000nM): 2%; difference in %Control versus compound Ib at 1 µM ([6]; @1000nM, ERBB2): 48%; difference in %Control versus compound Ib at 1 µM ([7]; @1000nM): -4%; difference in %Control versus compound Ib at 1 µM ([8]; @1000nM): 0%; %Control difference versus compound Ib at 1 µM ([9]; @1000nM): 4%; remaining binding at 1 µM ([10]; @1000nM, read-out: %Control): 66%; remaining binding at 1 µM ([10]; read-out: %Control @1000nM): 66%
2 | C=CC(=O)N1CCC[C@@H](n2nc(-c3ccc(Oc4ccccc4)cc3)c3c(N)ncnc32)C1 [Compound 1g, Ibrutinib, reference compound] | 72% | 72% | 91% | 91% | 95% | 95% | 0% | 0% | 100% | 100% | 100% | 100% | 95% | 95% | 0% | 0% | inhibition at 1 µM ([6]; ScanTK, 1 μM): > 99%; inhibition at 1 µM ([11]; read-out: % inhibition, SRMS): > 99%
